Measurements reported in patent publication US10174016B2 (BAYER AKTIENGESELLSCHAFT, priority 2014, dated 2019).
Read-outs that look alike come from different tables or passages of the source.

How the values were obtained:
human P2X3 receptor = human P2X3 receptor (Homo sapiens (Human), UniProt P56373); experiment: Intracellular calcium measurement (FLIPR, Fluo-4) of antagonist activity at human P2X3 receptors; format: cell-based; details: read-out: hP2X3 IC50
Summary of the method: (§1)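 Cells expressing human P2X3 or P2X2/3, loaded with Fluo-4, preincubated 30 min at 37° C. with compound (1% DMSO final), then challenged with α,β-Me-ATP at its EC80. Peak FLIPR fluorescence over 90 sec gave % response; IC50, maximal inhibition and Hill slope from triplicates.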

human P2X2/3 receptor = human P2X2/3 receptor (Homo sapiens (Human), UniProt P56373+Q9UBL9); experiment: Intracellular calcium measurement (FLIPR, Fluo-4) of antagonist activity at human P2X2/3 receptors; format: cell-based; details: human P2X2/3, FLIPR calcium assay, agonist α,β-Me-ATP; read-out: hP2X2/3 IC50
Summary of the method: as §1

[1] = human P2X3, FLIPR calcium assay, agonist α,β-Me-ATP

human P2X3 receptor, sequence (P56373 whole entry): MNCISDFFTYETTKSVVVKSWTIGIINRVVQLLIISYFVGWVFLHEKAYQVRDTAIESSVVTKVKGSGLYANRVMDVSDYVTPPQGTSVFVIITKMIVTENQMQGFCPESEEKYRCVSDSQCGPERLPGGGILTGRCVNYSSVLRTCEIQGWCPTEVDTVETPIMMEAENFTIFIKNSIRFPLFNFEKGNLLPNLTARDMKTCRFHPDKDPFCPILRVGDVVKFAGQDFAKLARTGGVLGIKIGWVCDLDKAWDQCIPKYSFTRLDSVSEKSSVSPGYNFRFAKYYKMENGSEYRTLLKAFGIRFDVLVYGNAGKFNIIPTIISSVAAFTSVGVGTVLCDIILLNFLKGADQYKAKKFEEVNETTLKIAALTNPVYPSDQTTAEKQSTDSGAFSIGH
human P2X2/3 receptor, sequence (P56373 whole entry): as above
human P2X2/3 receptor, sequence (Q9UBL9 whole entry): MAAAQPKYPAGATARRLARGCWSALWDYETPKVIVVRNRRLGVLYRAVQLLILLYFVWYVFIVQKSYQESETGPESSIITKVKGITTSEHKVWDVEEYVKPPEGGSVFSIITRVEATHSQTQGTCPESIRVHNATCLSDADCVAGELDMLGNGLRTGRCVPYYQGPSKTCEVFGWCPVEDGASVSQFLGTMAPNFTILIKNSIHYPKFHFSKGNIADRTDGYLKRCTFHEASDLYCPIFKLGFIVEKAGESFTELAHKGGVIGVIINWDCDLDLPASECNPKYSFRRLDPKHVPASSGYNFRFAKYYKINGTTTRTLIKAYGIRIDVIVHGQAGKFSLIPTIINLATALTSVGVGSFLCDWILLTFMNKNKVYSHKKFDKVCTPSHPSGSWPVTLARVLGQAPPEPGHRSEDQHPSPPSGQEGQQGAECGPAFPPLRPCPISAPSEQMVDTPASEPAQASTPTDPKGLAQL

Structure (SMILES)	IC50 (human P2X2/3 receptor) [µM]	IC50 (human P2X3 receptor; [1]) [µM]	IC50 (human P2X3 receptor) [µM]
Cc1cnc(-c2cc(OCC(C)(C)O)cc(C(=O)N[C@H](C)c3cnc(C(F)(F)F)nc3)c2)s1 [Example 328, 3-(2-hydroxy-2-methylpropoxy)-5-(5-methyl-1,3-thiazol-2-yl)-N-{(1R)-1-[2-(trifluoromethyl)pyrimidin-5-yl]ethyl}benzamide]	0.274	–	0.012
Cc1cnc(-c2cc(OC3C4COCC3CN(C(C)C)C4)cc(C(=O)N[C@H](C)c3cnc(C(F)(F)F)nc3)c2)s1 (stereo partly drawn) [Example 344, 3-[(7-isopropyl-3-oxa-7-azabicyclo[3.3.1]non-9-yl)oxy]-5-(5-methyl-1,3-thiazol-2-yl)-N-{(1R)-1-[2-(trifluoromethyl)pyrimidin-5-yl]ethyl}benzamide]	0.987	0.034	–
COC(=O)N1CC2COCC(C1)C2Oc1cc(C(=O)N[C@H](C)c2cnc(C(F)(F)F)nc2)cc(-c2ncc(C)s2)c1 (stereo partly drawn) [Example 345, methyl 9-[3-(5-methyl-1,3-thiazol-2-yl)-5-({(1R)-1-[2-(trifluoromethyl)pyrimidin-5-yl]ethyl}carbamoyl)phenoxy]-3-oxa-7-azabicycle[3.3.1]nonane-7-carboxylate]	0.099	0.007	–
Cc1cnc(-c2cc(OC[C@@H]3CN(C)CCO3)cc(C(=O)N[C@H](C)c3cnc(C(F)(F)F)nc3)c2)s1 [Example 351, 3-{[(2S)-4-methylmorpholin-2-yl]methoxy}-5-(5-methyl-1,3-thiazol-2-yl)-N-{(1R)-1-[2-(trifluoromethyl)pyrimidin-5-yl]ethyl}benzamide]	0.69	0.016	–
Cc1cnc(-c2cc(OCC3CN(C)CCO3)cc(C(=O)N[C@H](C)c3cnc(C(F)(F)F)nc3)c2)s1 (stereo partly drawn) [Example 353, 3-{[4-methylmorpholin-2-yl]methoxy}-5-(5-methyl-1,3-thiazol-2-yl)-N-{(1R)-1-[2-(trifluoromethyl)pyrimidin-5-yl]ethyl}benzamide]	0.427	0.007	–
Cc1cnc(-c2cc(OC[C@H]3COCCN3C)cc(C(=O)N[C@H](C)c3cnc(C(F)(F)F)nc3)c2)s1 [Example 360]	0.455	0.01	–

More lines, main results first:

IC50 (human P2X2/3 receptor) [µM]	IC50 (human P2X3 receptor; [1]) [µM]	Structure (SMILES)	IC50 (human P2X3 receptor) [µM]
1.52	0.009	Cc1cnc(-c2cc(OC[C@H]3CNCCO3)cc(C(=O)N[C@H](C)c3cnc(C(F)(F)F)nc3)c2)s1 [Example 347, 3-(5-Methyl-1,3-thiazol-2-yl)-5-[(2R)-morpholin-2-ylmethoxy]-N-{(1R)-1-[2-(trifluoromethyl)pyrimidin-5-yl]ethyl}benzamide]	–
1.16	0.014	Cc1cnc(-c2cc(OC[C@@H]3CNCCO3)cc(C(=O)N[C@H](C)c3cnc(C(F)(F)F)nc3)c2)s1 [Example 350, 3-(5-Methyl-1,3-thiazol-2-yl)-5-[(2S)-morpholin-2-ylmethoxy]-N-{(1R)-1-[2-(trifluoromethyl)pyrimidin-5-yl]ethyl}benzamide]	–
1.14	0.018	Cc1cnc(-c2cc(OCC3CNCCO3)cc(C(=O)N[C@H](C)c3cnc(C(F)(F)F)nc3)c2)s1 (stereo partly drawn) [Example 352, 3-(5-Methyl-1,3-thiazol-2-yl)-5-[morpholin-2-ylmethoxy]-N-{(1R)-1-[2-(trifluoromethyl)pyrimidin-5-yl]ethyl}benzamide]	–
1.03	0.025	Cc1cnc(-c2cc(OC[C@@]3(F)CCCNC3)cc(C(=O)N[C@H](C)c3cnc(C(F)(F)F)nc3)c2)s1 [Example 354]	–
1.44	0.057	Cc1cnc(-c2cc(OCC3(F)CNC3)cc(C(=O)N[C@H](C)c3cnc(C(F)(F)F)nc3)c2)s1 [Example 358, 3-[(3-fluoroazetidin-3-yl)methoxy]-5-(5-methyl-1,3-thiazol-2-yl)-N-{(1R)-1-[2-(trifluoromethyl)pyrimidin-5-yl]ethyl}benzamide]	–
0.2	0.006	Cc1cnc(-c2cc(OCC3CNCCC3(F)F)cc(C(=O)N[C@H](C)c3cnc(C(F)(F)F)nc3)c2)s1 (stereo partly drawn) [Example 359, 3-{[4,4-difluoropiperidin-3-yl]methoxy}-5-(5-methyl-1,3-thiazol-2-yl)-N-{(1R)-1-[2-(trifluoromethyl)pyrimidin-5-yl]ethyl}benzamide]	–
